The nature of data set [1]: Heat sterilization of beclomethasone dipropionate concentrates: content, impurities, particle size. It is filed as physicochemical. As to conditions: 121/30, data not shown. On the procedure:
Determination of impurity levels and particle size were also determined as outlined above.

For data set [2] the following is noted: suspensions sterilized by a wet steam process; cited from earlier work.
The nature of data set [3]: Water solubility of budesonide at sterilizing temperatures. It is filed as physicochemical. As to the method: A balance is required between the solubility of the glucocorticosteroid and the amount of the glucocorticosteroid used per unit of solvent such that at least 50% of the glucocorticosteroid is suspended in the solvent. For example, for budesonide, at the sterilizing temperatures used herein the water solubility is about 7 mg/ml. Therefore, using 15 mg of budesonide per […] provides 53% of budesonide as a suspension. Preferably at least 60% of the glucocorticosteroid is suspended in the solvent although this value could be at least 70% or at least 80%.

Here are results for two compounds from patent publication US10314785B2, “Sterile pharmaceutical compositions” (NORTON HEALTHCARE LTD, priority 2004, dated 2019).

≈ marks a conversion by molar mass, not a printed value.

As to `CCC(=O)OCC(=O)[C@@]1(OC(=O)CC)[C@@H](C)C[C@H]2[C@@H]3CCC4=CC(=O)C=C[C@]4(C)[C@@]3(Cl)[C@@H](O)C[C@@]21C` [beclomethasone, beclomethasone dipropionate], in data set [1], the “change in beclomethasone content upon heating in the autoclave” value was “no significant change”, the “change in particle size distribution on autoclaving” value is on record as “no significant change” and the “increase in impurities upon heating in the autoclave” value is on record as “no significant change in beclomethasone content or increase in impurities”. Also, in data set [2], the “decrease in active ingredient content” value is on record as 8-9% and the “increase in degradation products” value is recorded as 10-11%.
For the compound `CCCC1O[C@@H]2C[C@H]3[C@@H]4CCC5=CC(=O)C=C[C@]5(C)[C@H]4[C@@H](O)C[C@]3(C)[C@]2(C(=O)CO)O1` (stereo partly shown) [budesonide], the “fraction of budesonide suspended” value in data set [3] (using 15 mg of budesonide per 1 mg water) amounted to 53%. The same compound returned a solubility in data set [3] (water, at the sterilizing temperatures used herein) of about 7000 µg/mL (≈ 16.3 mM).

The solubility is the concentration that dissolves in the medium under given conditions. Read a low solubility as little dissolved substance.
